Molecules are shown by their SMILES. Where “and” joins values, the source holds several entries; their conditions need not be identical. Equal values may be shown once. Records with an inconclusive call do not appear. *1 amine or outer side, *2 acyl side, *3 side chain or, on linkers, in order; H or OH if unused. Where a SMILES comes first, the peptide text is derived from it. Bridges are numbered along the chain shown (N, C = ends). Roman numbers before positions name the chains, in order. [ ]: non-standard residue; d: D form. Actinocin(9to1) = Cc1c2oc3c(C)ccc(C(=O)[*:1])c3nc-2c(C(=O)[*:2])c(N)c1=O; aThr = C[C@H](O)[C@H](N)C(=O)O; NMeV = CN[C@H](C(=O)O)C(C)C; Sar = CNCC(=O)O

The subject of the experiment is CD2F1 mice, Lymphoma 8 ip, survival T/C. Nature of the experiment: NCI In Vivo Anticancer Drug Screen. Data for tumor model Lymphoma 8 (intraperitoneal) in CD2F1 (CDF1) mice. Conditions: higher = longer survival. The procedure: The antitumor activity of compounds was measured in mice bearing transplantable tumors. Survival or tumor size were measured and the results are expressed as the measurement made in the treated group (T) divided by the measurement made in the vehicle treated control group (C). The tumor model used in this assay is Lymphoma 8 (intraperitoneal) in CD2F1 (CDF1) mice

`NC(=O)C(F)(F)C(N)C(=O)O` (stereo unspecified): the T/C (endpoint: median survival time, dose: 50.0 mg/kg/injection, schedule: Q01DX009 (ip), vehicle: saline) is 88 % of control and the T/C (endpoint: median survival time, dose: 100.0 mg/kg/injection, schedule: Q01DX009 (ip), vehicle: saline) was 88 % of control.
Take `NCC(=O)O`: the T/C (endpoint: median survival time, dose: 187.5 mg/kg/injection, schedule: Q04HX003 (ip), vehicle: saline) was 86 % of control; the T/C (endpoint: median survival time, dose: 375.0 mg/kg/injection, schedule: Q04HX003 (ip), vehicle: saline) is 86 % of control; the T/C (endpoint: median survival time, dose: 750.0 mg/kg/injection, schedule: Q04HX003 (ip), vehicle: saline) was 81 % of control; the T/C (endpoint: median survival time, dose: 1500.0 mg/kg/injection, schedule: Q04HX003 (ip), vehicle: saline) was 75 % of control.
For `Nc1ncnc2[nH]ncc12`, the T/C is 90 % of control and 95 % of control (endpoint: survival time, mean or median, dose: 1.5 mg/kg/injection, schedule: Q01DX010 (ip), vehicle: saline); 100 % of control (endpoint: survival time, mean or median, dose: 3.0 mg/kg/injection, schedule: Q01DX010 (ip), vehicle: saline); 90 % of control and 95 % of control (endpoint: survival time, mean or median, dose: 6.0 mg/kg/injection, schedule: Q01DX010 (ip), vehicle: saline); 90 % of control (endpoint: survival time, mean or median, dose: 12.0 mg/kg/injection, schedule: Q01DX010 (ip), vehicle: saline).
For `CC[C@]1(O)C[C@H]2CN(CCc3c([nH]c4ccccc34)[C@@](C(=O)OC)(c3cc4c(cc3OC)N(C=O)[C@H]3[C@@](O)(C(=O)OC)[C@H](OC(C)=O)[C@]5(CC)C=CCN6CC[C@]43[C@@H]65)C2)C1`, the T/C was 96 % of control and 104 % of control and 109 % of control (endpoint: median survival time, dose: 0.03 mg/kg/injection, schedule: Q01DX005 (ip), vehicle: saline); 100 % of control and 103 % of control and 105 % of control (endpoint: median survival time, dose: 0.06 mg/kg/injection, schedule: Q01DX005 (ip), vehicle: saline); 115 % of control and 118 % of control (endpoint: median survival time, dose: 0.12 mg/kg/injection, schedule: Q01DX005 (ip), vehicle: saline); 116 % of control (endpoint: median survival time, dose: 0.13 mg/kg/injection, schedule: Q01DX005 (ip), vehicle: saline).
For `N[C@H](C(=O)O)[C@@H]1CC(Cl)=NO1`, the T/C is 105 % of control (endpoint: median survival time, dose: 0.38 mg/kg/injection, schedule: Q01DX009 (ip), vehicle: saline); 115 % of control (endpoint: median survival time, dose: 0.75 mg/kg/injection, schedule: Q01DX009 (ip), vehicle: saline); 118 % of control (endpoint: median survival time, dose: 1.5 mg/kg/injection, schedule: Q01DX009 (ip), vehicle: saline).
Turning to `O=C1NC(O)CCN1C1OC(CO)C(O)C1O` (stereo unspecified), the T/C (endpoint: median survival time, dose: 10.0 mg/kg/injection, schedule: Q01DX015 (ip), vehicle: saline) is 102 % of control and 109 % of control; the T/C (endpoint: median survival time, dose: 10.0 mg/kg/injection, schedule: Q04DX008 (ip), vehicle: saline) was 100 % of control and 101 % of control; the T/C (endpoint: median survival time, dose: 10.0 mg/kg/injection, schedule: Q## X015 (ip), vehicle: saline) was 102 % of control and 109 % of control; the T/C (endpoint: median survival time, dose: 30.0 mg/kg/injection, schedule: Q01DX015 (ip), vehicle: saline) is 102 % of control and 112 % of control; the T/C (endpoint: median survival time, dose: 30.0 mg/kg/injection, schedule: Q04DX008 (ip), vehicle: saline) is 101 % of control (2×) and 103 % of control; the T/C (endpoint: median survival time, dose: 30.0 mg/kg/injection, schedule: Q## X015 (ip), vehicle: saline) is 102 % of control and 112 % of control. Besides, the T/C (endpoint: median survival time, dose: 100.0 mg/kg/injection, schedule: Q01DX015 (ip), vehicle: saline) is 102 % of control and 104 % of control; the T/C (endpoint: median survival time, dose: 100.0 mg/kg/injection, schedule: Q04DX008 (ip), vehicle: saline) is 101 % of control (2×) and 103 % of control; the T/C (endpoint: median survival time, dose: 100.0 mg/kg/injection, schedule: Q## X015 (ip), vehicle: saline) is 102 % of control and 104 % of control; the T/C (endpoint: median survival time, dose: 300.0 mg/kg/injection, schedule: Q01DX015 (ip), vehicle: saline) was 99 % of control and 101 % of control; the T/C (endpoint: median survival time, dose: 300.0 mg/kg/injection, schedule: Q04DX008 (ip), vehicle: saline) is 99 % of control and 102 % of control; the T/C (endpoint: median survival time, dose: 300.0 mg/kg/injection, schedule: Q## X015 (ip), vehicle: saline) was 99 % of control and 101 % of control. Besides, the T/C (endpoint: median survival time, dose: 1000.0 mg/kg/injection, schedule: Q01DX015 (ip), vehicle: saline) is 101 % of control; the T/C (endpoint: median survival time, dose: 1000.0 mg/kg/injection, schedule: Q04DX008 (ip), vehicle: saline) was 99 % of control and 105 % of control; the T/C (endpoint: median survival time, dose: 1000.0 mg/kg/injection, schedule: Q## X015 (ip), vehicle: saline) was 101 % of control.
For the compound `CN1C(=O)C=CC1=O`, the T/C is 97 % of control and 102 % of control (endpoint: median survival time, dose: 0.5 mg/kg/injection, schedule: Q01DX009 (ip), vehicle: saline); 102 % of control and 103 % of control (endpoint: median survival time, dose: 1.0 mg/kg/injection, schedule: Q01DX009 (ip), vehicle: saline); 94 % of control and 100 % of control (endpoint: median survival time, dose: 2.0 mg/kg/injection, schedule: Q01DX009 (ip), vehicle: saline); 94 % of control (endpoint: median survival time, dose: 4.0 mg/kg/injection, schedule: Q01DX009 (ip), vehicle: saline).
For `CN(Cc1cnc2nc(N)nc(N)c2n1)c1ccc(C(=O)N[C@@H](CCC(=O)O)C(=O)O)cc1`, the T/C runs as follows: (endpoint: median survival time, dose: 0.75 mg/kg/injection, schedule: Q01DX005 (ip), vehicle: saline) 188 % of control and 195 % of control; (endpoint: median survival time, dose: 1.5 mg/kg/injection, schedule: Q01DX005 (ip), vehicle: saline) 161 % of control and 172 % of control; (endpoint: median survival time, dose: 3.0 mg/kg/injection, schedule: Q01DX005 (ip), vehicle: saline) 53 % of control.
Turning to `Cc1c2oc3c(C)ccc(C(=O)N[C@@H]4C(=O)N[C@H](C(C)C)C(=O)N5CCC[C@H]5C(=O)N(C)CC(=O)N(C)[C@@H](C(C)C)C(=O)O[C@H]4C)c3nc-2c(C(=O)N[C@@H]2C(=O)N[C@H](C(C)C)C(=O)N3CCC[C@H]3C(=O)N(C)CC(=O)N(C)[C@@H](C(C)C)C(=O)O[C@H]2C)c(N)c1=O` (I: [aThr][dV]P[Sar][NMeV] / II: [aThr][dV]P[Sar][NMeV]; ester I:1-I:C, II:1-II:C; linker I:N-II:N via Actinocin(9to1)), the T/C runs as follows: (endpoint: median survival time, dose: 0.05 mg/kg/injection, schedule: Q01DX002 (ip), vehicle: saline) 103 % of control; (endpoint: median survival time, dose: 0.05 mg/kg/injection, schedule: Q04DX002 (ip), vehicle: saline) 100 % of control; (endpoint: median survival time, dose: 0.1 mg/kg/injection, schedule: Q04DX002 (ip), vehicle: saline) 92 % of control; (endpoint: median survival time, dose: 0.2 mg/kg/injection, schedule: Q01DX002 (ip), vehicle: saline) 106 % of control; (endpoint: median survival time, dose: 0.2 mg/kg/injection, schedule: Q04DX002 (ip), vehicle: saline) 100 % of control.
For the compound `CC/C(=C(/CC)c1ccc(O)cc1)c1ccc(O)cc1`, the T/C is, setting by setting: (endpoint: survival time, mean or median, dose: 12.5 mg/kg/injection, schedule: Q01DX010 (sc), vehicle: steriod suspending solution) 90 % of control; (endpoint: survival time, mean or median, dose: 25.0 mg/kg/injection, schedule: Q01DX010 (sc), vehicle: steriod suspending solution) 90 % of control; (endpoint: survival time, mean or median, dose: 50.0 mg/kg/injection, schedule: Q01DX010 (sc), vehicle: steriod suspending solution) 90 % of control and 95 % of control; (endpoint: survival time, mean or median, dose: 100.0 mg/kg/injection, schedule: Q01DX010 (sc), vehicle: steriod suspending solution) 90 % of control.
For `O=c1[nH]c(=O)n(C2CC(O)C(CO)O2)cc1F` (stereo unspecified), the T/C was 104 % of control (endpoint: survival time, mean or median, dose: 5.0 mg/kg/injection, schedule: Q01DX010 (ip), vehicle: saline); 109 % of control (endpoint: survival time, mean or median, dose: 10.0 mg/kg/injection, schedule: Q01DX010 (ip), vehicle: saline); 113 % of control (endpoint: survival time, mean or median, dose: 20.0 mg/kg/injection, schedule: Q01DX010 (ip), vehicle: saline).
As for `COc1cc2c(c3c1c(=O)c1ccccc1n3C)C=CC(C)(C)O2`, the T/C was 100 % of control (endpoint: median survival time, dose: 12.5 mg/kg/injection, schedule: Q01DX009 (ip), vehicle: Klucel (hydroxypropylcellulose) (HPC)); 100 % of control (endpoint: median survival time, dose: 25.0 mg/kg/injection, schedule: Q01DX009 (ip), vehicle: Klucel (hydroxypropylcellulose) (HPC)); 107 % of control (endpoint: median survival time, dose: 50.0 mg/kg/injection, schedule: Q01DX009 (ip), vehicle: Klucel (hydroxypropylcellulose) (HPC)); 96 % of control (endpoint: median survival time, dose: 100.0 mg/kg/injection, schedule: Q01DX009 (ip), vehicle: Klucel (hydroxypropylcellulose) (HPC)).
Consider `O=C1C=C(C2OC(CO)C(O)C2O)C(=O)N1` (stereo unspecified), for which the T/C runs as follows: (endpoint: median survival time, dose: 2.0 mg/kg/injection, schedule: Q01DX010 (ip), vehicle: saline) 92 % of control; (endpoint: median survival time, dose: 4.0 mg/kg/injection, schedule: Q01DX010 (ip), vehicle: saline) 92 % of control; (endpoint: median survival time, dose: 8.0 mg/kg/injection, schedule: Q01DX005 (ip), vehicle: saline) 75 % of control; (endpoint: median survival time, dose: 8.0 mg/kg/injection, schedule: Q01DX010 (ip), vehicle: saline) 100 % of control; (endpoint: median survival time, dose: 16.0 mg/kg/injection, schedule: Q01DX005 (ip), vehicle: saline) 43 % of control; (endpoint: median survival time, dose: 32.0 mg/kg/injection, schedule: Q01DX005 (ip), vehicle: saline) 17 % of control.

Values taken from PubChem BioAssay AID244 (DTP/NCI, 2004).
